Consider 1 compound from article PMC11317440, “Soloxolone para-methylanilide effectively suppresses aggressive phenotype of glioblastoma cells including TGF-β1-induced glial-mesenchymal transition in vitro and inhibits growth of U87 glioblastoma xenografts in mice” (Frontiers in Pharmacology, 2024).

What is called IC50 is the concentration that inhibits the measured activity by half.

Data set [1] has as its system EPNT-5 cells. The data set can be described thus: MTT assay 72 h, 7 and TMZ alone and combined, synergy (HSA), EPNT-5. In kind it is cell-based, mouse. The protocol:
The drug synergy score was calculated for the dose-response matrix according to the highest single-agent (HSA) model using the SynergyFinder + web application (https://www.synergyfinder.org/).

Data set [2] relates to TGF-β1-treated U87 cells. In words: ECM adhesion assay (Matrigel), U87 cells. The following applies: TGF-β1 50 ng/mL, 7 50 nM, 48 h. The data set is classed as cell-based, human. As for the experimental part:
Second, to assess cell adhesion to the extracellular matrix (ECM), an ECM adhesion assay was performed according to previously published method ([Guan et al., 2015]; [Hu et al., 2019]). Briefly, U87 cells were pretreated with TGF-β1 (50 ng/mL) and compound 7 (50 nM) for 48 h, and then seeded in 96-well plates coated with Matrigel (BD Biosciences, Bedford, MA, USA) at a concentration of 30,000 cells for 1 h (n = 3). After that, the wells were washed to remove non-adherent cells, adherent cells were fixed with formaldehyde, stained with crystal violet dye, and analyzed as described above.

Data set [3] relates to U87 glioblastoma xenograft. The data set can be described thus: U87 glioblastoma xenograft model. The data set is classed as in vivo, athymic nude mice. Conditions: 7 20 mg/kg i.p. As for the experimental part:
A xenograft model of tumor progression was induced by subcutaneous (s.c.) implantation of U87 glioblastoma cells (2×10^7 cells/mL) suspended in 0.1 mL of saline buffer into the left flank of athymic nude mice. On day 4 after tumor transplantation, the mice were divided into four groups: (1) mice received intraperitoneal (i.p.) injections of 10% Tween-80 (vehicle) (n = 6); (2) mice received i.p. injections of compound 7 in 10% Tween-80 at a dose of 20 mg/kg (n = 5); (3) mice received i.p. injections of TMZ in saline buffer at a dose of 10 mg/kg (n = 5); (4) mice received combination therapy of compound 7 and TMZ at the same dosage and administration route (n = 6). Compound 7 was administered three times per week; in total seven injections were performed. TMZ was administered daily except weekends; in total eleven injections were performed. During the experiment, the tumor volumes were determined three times per week using caliper measurements and were calculated as V = (D × d^2)/2, where D is the longest diameter of the tumor node and d is the shortest diameter of the tumor node perpendicular to D. Mice were sacrificed on day 19 after tumor transplantation and material (tumor nodes, livers, and kidneys) was collected for subsequent analysis.

Data set [4] relates to U87 secondary tumorspheres. In words: Secondary tumorsphere formation, U87. The data set is classed as cell-based, human. As for the experimental part:
For evaluation of spheroid growth, the bottom of the 96-well plate was covered with 1% agarose for non-adherent conditions. U87 cells (5,000 cells/well) were then seeded and allowed to form spheroids for 24 h, after which increasing concentrations of compound 7 (0–1,000 nM) were added (n = 8). Every other day of the 10-day experiment, fresh medium supplemented with compound 7 was added to half of the medium, and the spheroids were photographed using a camera-equipped ZEISS Primo Vert microscope (Carl Zeiss Microscopy GmbH, Jena, Germany). To assess the formation of secondary tumorspheres, cells were dissociated from primary tumorspheres after 4 days of compound 7 stimulation using TrypLE Express and were then seeded into agarose-coated 96-well plates (n = 8). On day 3, the resulting secondary spheroids were examined microscopically. Primary and secondary spheroid areas were quantified using ImageJ.

In data set [5] the test system is U87 cells. The data set can be described thus: Annexin V-FITC/propidium iodide flow cytometry, U87, 48 h. The data set is classed as cell-based, human. The protocol:
To observe apoptosis and necrosis, U87 and U118 cells were stained with Annexin V-FITC and propidium iodide (ab14085; Abcam, Inc., Cambridge, MA, USA) after 48 h of incubation with compound 7 (0–2000 nM) according to the manufacturer’s protocol (n = 3). To quantify the total proportion of apoptotic cells in control and experimental groups, the events accumulated in the lower right quadrant (early apoptosis) and upper right quadrant (late apoptosis) were summarized.
After staining, 10,000 cells per sample were analyzed on a NovoCyte flow cytometer using NovoExpress software (ACEA Biosciences, Inc., USA).

Data set [6] concerns N-cadherin, fibronectin, Slug, OLIG2 expression in TGF-β1-induced U87 cells. The data set can be described thus: qRT-PCR of GMT markers in U87 cells. In kind it is cell-based, human. Conditions: 48 h. As for the experimental part:
Total RNA was extracted using TRIzol Reagent (Ambion, Austin, TX, USA) according to the manufacturer’s protocol. Subsequently, the first strand cDNA was synthesized from 4 μg of total RNA using an oligo (dT)18 primers and M-MuLV-RH revertase (Biolabmix, Novosibirsk, Russia). Finally, RT-qPCR was performed using specific primers (Table 1) and BioMaster SYBR Blue reagent kit (Biolabmix, Novosibirsk, Russia). Relative expression was determined by normalization to the housekeeping gene HPRT using the 2^−ΔΔCT method (Livak and Schmittgen 2001).

The subject of data set [7] is U118 glioblastoma cells. In words: MTT cell viability assay, U118 cells, 48 h. The following applies: Homo sapiens. The data set is classed as cell-based. As for the experimental part:
Cells were seeded in quadruplicate in 96-well plates at 10,000 cells/well and allowed to adhere overnight. The medium was then replaced with serum-free DMEM containing increasing concentrations of soloxolone amides for 48 h. After incubation, 3-(4,5-dimethylthiazol-2-yl)-2,5-diphenyltetrazolium bromide (MTT dye) was added at a final concentration of 0.5 mg/mL and left for 2 h. The resulting formazan crystals were dissolved in DMSO and the optical density was measured at 570 nm using a Multiscan RC plate reader (Thermo LabSystems, Helsinki, Finland).
(Tetrazolium dyes change colour on reduction, which living cells bring about.)

Data set [8] has as its system TGF-β1-treated U87 cells. The data set can be described thus: Transwell migration (xCELLigence), U87 cells. The data set is classed as cell-based, human. Conditions: U87, 7 50 nM, TGF-β1 50 ng/mL, at 72 h. As for the experimental part:
To perform transwell migration, U87 cells were pretreated with TGF-β1 (50 ng/mL) and compound 7 (50 nM) for 48 h. Subsequently, 250,000 cells were placed in the upper chamber of the CIM-16 xCELLigence plate in serum-free DMEM supplemented with compound 7 and TGF-β1 (n = 4), while the lower chamber was filled with DMEM containing 10% FBS. Cell migration was monitored for 72 h using the xCELLigence RTCA DP system (ACEA Biosciences Inc., San Diego, CA, USA). The electrodes placed under the porous membrane detected changes in resistance, which were then converted into cell indices proportional to the number of migrating cells.

With `Cc1ccc(NC(=O)[C@@]2(C)CC[C@]3(C)CC[C@]4(C)[C@H](C(=O)C=C5[C@@]6(C)C=C(C#N)C(=O)C(C)(C)C6CC[C@]54C)[C@@H]3C2)cc1` (some centres unmarked) [compound 7, N-p-tolyl-2-cyano-3,12-dioxo-18βH-olean-9(11),1(2)-dien-30-amide], the “effect of 7 on TMZ cytotoxicity in EPNT-5 cells” value in data set [1] (7 at 50 nM) is given as “antagonistic effect”. In addition, the IC50 in data set [1] (Mus musculus, MTT) was 199 nM; in data set [7], 310 nM. In data set [2], the “TGF-β1-induced adhesion of U87 cells to Matrigel” value is on record as “effectively suppressed this induction to almost control levels”. For the same compound, the “reduction in tumor volume compared to the vehicle group” value in data set [3] (day 11) is reported as 2.1 fold; in data set [3] (day 13), 3.2 fold; in data set [3] (day 15, TMZ 10 mg/kg i.p.), 6.6 fold; in data set [3] (day 18, TMZ 10 mg/kg i.p.), 7.2 fold. Further, the “reduction in tumor weight compared to the vehicle” value in data set [3] (end of the experiment (day 19), TMZ 10 mg/kg i.p.) turned out to be 8 fold. In addition, the “increase of secondary tumorsphere area” value in data set [4] (U87, 7 50 nM for 4 days, p-value <0.01) is 22.6%; in data set [4] (U87, 7 100 nM for 4 days, not statistically significant), 6.6%. In addition, the “decrease of secondary tumorsphere area” value in data set [4] (U87, 7 450 nM for 4 days) stood at 23.9%; in data set [4] (U87, 7 1,000 nM for 4 days) it was 84.1%. The “percentage of cells in the right quadrants (apoptosis)” value amounted to 3.7% in data set [5] (U87, 7 450 nM); 40% in data set [5] (U87, 7 1,000 nM); 83.3% in data set [5] (U87, 7 2000 nM). Besides, the “necrosis (upper left quadrant)” value was determined as 23.4% in data set [5] (U87, 7 1,000 nM) and 14.8% in data set [5] (U87, 7 2000 nM). For the same compound, in data set [6] (TGF-β1-induced U87 cells, 7 50 nM), the “upregulation of OLIG2” value came to 2 fold. Also, in data set [6] (U87, 7 50 nM, TGF-β1 50 ng/mL), the “reduction of N-cadherin expression compared to TGF-β1-stimulated cells” value is on record as 67.6%. Further, the “reduction of Slug expression compared to TGF-β1-stimulated cells” value in data set [6] (U87, 7 50 nM, TGF-β1 50 ng/mL) came to 35.8%. For the same compound, in data set [6] (U87, 7 50 nM, TGF-β1 50 ng/mL), the “reduction of fibronectin expression compared to TGF-β1-stimulated cells” value worked out at 39.2%. Besides, in data set [8], the “suppression of transwell migration compared to cells stimulated with TGF-β1 alone” value came out at 1.7 fold.
